{
  "source": "paper PMC6839502",
  "about": "(Journal of Alzheimer's Disease, 2019)",
  "key": {"CSF Aβ": {"tested_on": "CSF Aβ", "details": "cited from earlier work; for Reduction in CSF Aβ: healthy older subjects; for Reduction of CSF Aβ40: healthy adults and older subjects combined; for Average reduction of steady state CSF Aβ40: mild-to-moderate AD patients"}, "[1]": {"tested_on": "fur, hair and skin pigmentation", "details": "cited from earlier work; for Fur and skin pigmentation: mice, rats, or dogs following chronic dosing regimens"}, "[2]": {"details": "cited from earlier work"}, "BACE1 over CatD": {"tested_on": "BACE1 over CatD", "details": "cited from earlier work"}, "BACE1 over BACE2": {"tested_on": "BACE1 over BACE2", "details": "cited from earlier work"}, "[3]": {"test": "Safety and tolerability in study B8271007", "format": "in vivo, human", "details": "single oral dose of 2 mg midazolam alone (period 1)"}},
  "note": "Read-outs that look alike come from different tables or passages of the source.",
  "data": [
    {"molecule": "CC#Cc1cncc(-c2ccc3c(c2)[C@@]2(N=C(C)C(N)=N2)[C@]2(CC[C@H](OC)CC2)C3)c1", "note": "[AZD3293]", "values": [
      {"measurement": "Reduction in CSF Aβ", "setting": "CSF Aβ; 15 mg QD", "value": "approximately 51%"},
      {"measurement": "Reduction in CSF Aβ", "setting": "CSF Aβ; 50 mg QD", "value": "~76", "unit": "%"},
      {"measurement": "Hair depigmentation", "setting": "[1]; animal studies", "value": "hair depigmentation"},
      {"measurement": "Fur and skin pigmentation", "setting": "[1]", "value": "fur and skin pigment loss"},
      {"measurement": "Liver toxicity in clinical studies", "setting": "[2]", "value": "liver toxicity was not reported"},
      {"measurement": "Selectivity for BACE1 over CatD", "setting": "BACE1 over CatD", "value": "good selectivity"}
    ]},
    {"molecule": "C[C@@]1(c2nc(NC(=O)c3ncc(C(F)(F)F)cc3Cl)ccc2F)CO[C@@](C)(C(F)(F)F)C(N)=N1", "note": "[CNP520]", "values": [
      {"measurement": "Hair depigmentation", "setting": "[1]; long-term treatment in mice or dogs", "value": "did not result in any hair depigmentation"},
      {"measurement": "Liver toxicity in clinical studies", "setting": "[2]", "value": "liver toxicity was not reported"},
      {"measurement": "Selectivity for BACE1 over BACE2 in vitro", "setting": "BACE1 over BACE2", "value": 3, "unit": "fold"}
    ]},
    {"molecule": "C[C@@]1(c2cc(NC(=O)c3ccc(C#N)cn3)ccc2F)C=CSC(N)=N1", "note": "[JNJ-54861911]", "values": [
      {"measurement": "Reduction of CSF Aβ40", "setting": "CSF Aβ; 5 mg QD", "value": "approximately 50%"},
      {"measurement": "Reduction of CSF Aβ40", "setting": "CSF Aβ; 25 mg QD", "value": "~80", "unit": "%"},
      {"measurement": "Liver toxicity in clinical studies", "setting": "[2]; Phase II and Phase IIb/III studies", "value": "concerns over abnormal liver enzymes leading to the termination"}
    ]},
    {"molecule": "NC1=N[C@@]2(c3cc(NC(=O)c4ccc(F)cn4)ccc3F)COC[C@H]2CS1", "note": "[LY2886721]", "values": [
      {"measurement": "Liver toxicity in clinical studies", "setting": "[2]; Phase II study", "value": "concerns over abnormal liver enzymes leading to the termination"}
    ]},
    {"molecule": "CN1C(=N)N[C@](C)(c2cc(NC(=O)c3ccc(F)cn3)ccc2F)CS1(=O)=O", "note": "[MK-8931]", "values": [
      {"measurement": "Average reduction of steady state CSF Aβ40", "setting": "CSF Aβ; 12 mg QD", "value": 57, "unit": "%"},
      {"measurement": "Average reduction of steady state CSF Aβ40", "setting": "CSF Aβ; 40 mg QD", "value": 79, "unit": "%"},
      {"measurement": "Hair depigmentation", "setting": "[1]; animal studies", "value": "hair depigmentation"},
      {"measurement": "Liver toxicity in clinical studies", "setting": "[2]", "value": "liver toxicity was not reported"}
    ]},
    {"molecule": "Cc1cc(C#N)cnc1C(=O)Nc1ccc(F)c([C@]2(C)CO[C@@](C)(C(F)(F)F)C(N)=N2)c1", "note": "[NB-360]", "values": [
      {"measurement": "Fur and skin pigmentation", "setting": "[1]", "value": "fur and skin pigment loss"}
    ]},
    {"molecule": "Cc1ncc2n1-c1ccc(Cl)cc1C(c1ccccc1F)=NC2", "note": "[midazolam, reference compound]", "values": [
      {"measurement": "TEAEs deemed treatment related", "setting": "[3]", "value": "none"},
      {"measurement": "TEAEs reported", "setting": "[3]", "value": "three"}
    ]}
  ]
}
